Laboratory results: patent US10351522B2, “Sulfonamide derivative and pharmaceutically acceptable acid addition salt thereof” (UNIVERSITY OF TSUKUBA, priority 2015, dated 2019)
Read-outs that look alike come from different tables or passages of the source.

Columns and labels:
human OX2R = biological target: T1, human OX2R (Homo sapiens, UniProt O43614); test: Agonist activity against OX2R: intracellular calcium (Fura-2AM, FDSS7000) in CHOOX2R cells; type: cell-based; conditions: relative to orexin-A as full agonist (100%)
T1 construct: expressed in transfected cells; host or cells: CHO (Chinese hamster ovary) cells, line CHOOX2R, co-expressing NFAT-luciferase
T1 sequence (O43614 1-444): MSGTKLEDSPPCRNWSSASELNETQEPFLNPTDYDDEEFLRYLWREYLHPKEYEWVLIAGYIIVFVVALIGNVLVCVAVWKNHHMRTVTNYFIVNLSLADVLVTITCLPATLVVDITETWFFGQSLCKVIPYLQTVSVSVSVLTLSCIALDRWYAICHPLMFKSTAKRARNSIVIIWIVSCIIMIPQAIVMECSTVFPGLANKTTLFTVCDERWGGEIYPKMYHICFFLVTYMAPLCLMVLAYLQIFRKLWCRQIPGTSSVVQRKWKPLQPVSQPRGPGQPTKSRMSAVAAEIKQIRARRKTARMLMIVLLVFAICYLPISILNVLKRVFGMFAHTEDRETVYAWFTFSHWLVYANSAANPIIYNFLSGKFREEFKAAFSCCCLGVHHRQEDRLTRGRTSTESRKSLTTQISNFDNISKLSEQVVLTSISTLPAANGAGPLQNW
Method: (§1) Evaluation of Agonist Activity Against OX1R and OX2R
(§2) NAFT-luciferase gene and human OX1R gene were constitutively expressed in CHO cell, which is a cell line derived from Chinese hamster ovary to establish a cell line (CHOOX1R) and NAFT-luciferase gene and human OX2R gene were constitutively expressed in CHO cell to establish a cell line (CHOOX2R). The respective cells were seeded in a 96-well Multiplate at 10,000 cells/well and cultured in a 5% FBS (Thermo Scientific)-added DMEM medium (Sigma-Aldrich) for 48 hr. The medium was removed, an assay buffer (20 mM HEPES (Sigma-Aldrich), Hanks' balanced salt solution (Gibco), 0.1% BSA (Sigma-Aldrich), 2.5 mM probenecid acid (Wako Pure Chemical Industries, Ltd.)) (100 μL) containing 5 μM Fura-2AM (Cayman Chemical) was added, and the cells were incubated for 60 min. The buffer containing Fura-2AM was removed, and an assay buffer (75 μL) was added. An assay buffer (25 μL) containing a test compound was added thereto to start the reaction. Changes in the intracellular calcium ion concentration due to the reaction were measured by measuring the fluorescence intensity ratio by dual wavelength excitation at 340 and 380 nm, by using FDSS7000 (Hamamatsu Photonics K.K.). The test compound was dissolved in DMSO to 10 mM, and diluted with the assay buffer to a final concentration of 10^−7M to 10^−5M (final concentration of DMSO 1%).
(§3) (As used herein, Response in Table 21 to Table 27 is a value obtained by dividing the agonist activity value, when the test compound is evaluated with orexin-A as a full-agonist (maximum value of agonist activity: 100%), at 10 μM, 1.0 μM, 0.1 μM by the agonist activity value of orexin-A.)

human OX1R = biological target: T2, human OX1R (Homo sapiens, UniProt O43613); test: Agonist activity against OX1R: intracellular calcium (Fura-2AM, FDSS7000) in CHOOX1R cells; type: cell-based; conditions: relative to orexin-A as full agonist (100%); for Emax at 0.1 µM / Emax at 1 µM / Emax at 10 µM: read-out: Response (%) OX1R
T2 construct: expressed in transfected cells; host or cells: CHO (Chinese hamster ovary) cells, line CHOOX1R, co-expressing NFAT-luciferase
T2 sequence (O43613 1-425): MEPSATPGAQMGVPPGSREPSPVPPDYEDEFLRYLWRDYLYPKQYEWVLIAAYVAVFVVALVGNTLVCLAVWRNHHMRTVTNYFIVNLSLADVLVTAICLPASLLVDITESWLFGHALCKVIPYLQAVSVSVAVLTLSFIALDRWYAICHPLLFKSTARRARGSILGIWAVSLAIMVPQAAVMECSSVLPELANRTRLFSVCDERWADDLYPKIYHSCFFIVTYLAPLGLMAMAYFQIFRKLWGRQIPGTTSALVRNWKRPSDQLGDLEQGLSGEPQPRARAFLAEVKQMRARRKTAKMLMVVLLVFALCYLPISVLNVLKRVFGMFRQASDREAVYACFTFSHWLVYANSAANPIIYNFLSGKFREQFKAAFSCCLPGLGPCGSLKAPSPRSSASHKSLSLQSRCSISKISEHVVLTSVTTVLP
Method: as §1, §2, §3

| Response (%) OX2R (human OX2R; 0.1 μM test compound) [%] | Response (%) OX2R (human OX2R; 1.0 μM test compound) [%] | Response (%) OX2R (human OX2R; 10 μM test compound) [%] | Response (%) OX1R (human OX1R; 0.1 μM test compound) [%] | Response (%) OX1R (human OX1R; 1.0 μM test compound) [%] | Response (%) OX1R (human OX1R; 10 μM test compound) [%] | Response (%) OX2R (human OX2R; test compound 0.1 μM) [%] | Response (%) OX2R (human OX2R; test compound 1.0 μM) [%] | Response (%) OX2R (human OX2R; test compound 10 μM) [%] | Response (%) OX1R (human OX1R; test compound 0.1 μM) [%] | Response (%) OX1R (human OX1R; test compound 1.0 μM) [%] | Response (%) OX1R (human OX1R; test compound 10 μM) [%] | SMILES | further results |
| --- | --- | --- | --- | --- | --- | --- | --- | --- | --- | --- | --- | --- | --- |
| 95 | 96 | 82 | <5 | <5 | 19 | – | – | – | – | – | – | COc1ccc(-c2cccc(C(=O)N(C)C)c2)cc1S(=O)(=O)Nc1cccc(NC(=O)Nc2ccc(C)cc2)c1 [Example 56] | – |
| <5 | <5 | 14 | <5 | <5 | <5 | – | – | – | – | – | – | COc1ccc(-c2cccc(C(=O)N(C)C)c2)cc1S(=O)(=O)Nc1cccc(NC(=O)Nc2cccc(C(=O)O)c2)c1 [Example 48] | – |
| <5 | 63 | 93 | <5 | <5 | 10 | – | – | – | – | – | – | COc1ccc(-c2cccc(C(=O)N(C)C)c2)cc1S(=O)(=O)Nc1cccc(Nc2ccc3c(c2)OCO3)c1 [Example 36] | – |
| <5 | 6 | 67 | – | – | – | – | – | – | – | – | – | COc1ccc(-c2cccc(C(=O)N(C)C)c2)cc1S(=O)(=O)Nc1cccc(NC(=O)c2ccccc2)c1 [Example 1, 3′-(N-(3-benzamidophenyl)sulfamoyl)-4′-methoxy-N,N-dimethyl-[1,1′-biphenyl]-3-carboxamide] | Emax at 0.1 µM (human OX1R; 0.1 μM test compound): < 5%; Emax at 1 µM (human OX1R; 1.0 μM test compound): < 5%; Emax at 10 µM (human OX1R; 10 μM test compound): < 5% |
| – | – | – | – | – | – | <5 | 11 | 68 | – | – | – | CNc1cccc(NS(=O)(=O)c2cc(-c3cccc(C(=O)N(C)C)c3)ccc2OC)c1 [Example 95, 4′-methoxy-N,N-dimethyl-3′-(N-(3-(methylamino)phenyl)sulfamoyl)-[1,1′-biphenyl]-3-carboxamide] | Emax at 0.1 µM (human OX1R; test compound 0.1 μM): < 5%; Emax at 1 µM (human OX1R; test compound 1.0 μM): < 5%; Emax at 10 µM (human OX1R; test compound 10 μM): < 5% |
| – | – | – | – | – | – | 9 | 78 | 147 | 8 | 7 | 8 | COc1ccc(-c2cccc(C(=O)N(C)C)c2)cc1S(=O)(=O)Nc1cccc(NC(=O)Nc2cccc(N(C)C)c2)n1 [Example 124] | – |
| – | – | – | – | – | – | 7 | 9 | 80 | <5 | <5 | <5 | COc1ccc(C(=O)NCC(C)(C)CN(C)C)cc1S(=O)(=O)Nc1cccc(NC(=O)Nc2cccc(N(C)C)c2)c1 [Example 107] | – |
| – | – | – | – | – | – | 144 | 97 | 94 | <5 | 78 | 110 | COc1ccc(-c2cccc(C(=O)N(C)C)c2)cc1S(=O)(=O)Nc1cccc(N2CCCCN(c3cccc(N(C)C)c3)C2=O)c1 [Example 136] | – |
| <5 | 54 | 105 | <5 | <5 | <5 | – | – | – | – | – | – | COc1ccc(-c2cccc(C(=O)N(C)C)c2)cc1S(=O)(=O)Nc1cccc(NC(=O)Nc2ccc(N)cc2)c1 [Example 55] | – |
| <5 | 19 | 82 | <5 | <5 | 10 | – | – | – | – | – | – | COc1ccc(-c2cccc(C(=O)N(C)C)c2)cc1S(=O)(=O)Nc1cccc(NC(=O)c2ccccc2C)c1 [Example 16] | – |
| 7 | 90 | 127 | 6 | 6 | 6 | – | – | – | – | – | – | COc1ccc(-c2cccc(C(=O)N(C)C)c2)cc1S(=O)(=O)Nc1cccc(NC(=O)Nc2cccnc2)c1 [Example 69] | – |
| – | – | – | – | – | – | <5 | <5 | 11 | <5 | <5 | <5 | COc1ccc(-c2cccc(C(=O)N(C)C)c2)cc1S(=O)(=O)Nc1cccc(NS(=O)(=O)c2cccc(Br)c2)c1 [Example 86] | – |
